Patent US12427146B2, “C-terminal SRC kinase inhibitors” (INVENTISBIO CO., LTD., priority 2018, dated 2025)
pIC50: −log10 of the molar value.

Tests used:
LCK protein = LCK protein (Homo sapiens (Human), UniProt P06239); assay: LCK Inhibition Assay; format: biochemical
Procedure, shortened: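 Recombinant LCK (0.50 nM) preincubated 30 min at RT with compound and FLPeptide4 (2 μM) in 50 mM HEPES pH 7.5, 10 mM MgCl2, Brij-35, DTT, BSA; reaction started with ATP (400 μM solution added), run 90 min at 25 °C, EDTA-stopped. Phospho/non-phospho peptide separated by mobility shift; IC50 from % inhibition of conversion, 11-point 1:3 series.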

CSK protein = CSK protein (Homo sapiens (Human), UniProt P41240); assay: CSK Inhibition Assay; format: biochemical
Chain of CSK protein (P41240 whole entry): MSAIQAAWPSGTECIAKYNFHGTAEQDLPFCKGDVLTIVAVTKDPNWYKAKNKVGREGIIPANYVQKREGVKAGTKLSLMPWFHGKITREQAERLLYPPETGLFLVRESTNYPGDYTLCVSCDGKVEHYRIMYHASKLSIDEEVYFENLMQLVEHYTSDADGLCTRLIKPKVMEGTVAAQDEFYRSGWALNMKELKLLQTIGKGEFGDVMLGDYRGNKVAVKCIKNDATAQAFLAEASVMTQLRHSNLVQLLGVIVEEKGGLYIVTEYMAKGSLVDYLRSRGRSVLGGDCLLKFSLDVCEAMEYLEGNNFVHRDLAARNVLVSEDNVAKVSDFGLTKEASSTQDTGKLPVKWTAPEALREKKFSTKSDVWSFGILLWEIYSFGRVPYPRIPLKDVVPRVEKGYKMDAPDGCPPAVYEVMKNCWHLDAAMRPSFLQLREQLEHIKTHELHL
Procedure, shortened: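 Compounds, 11-point 1:3 dilutions in DMSO, were preincubated 30 min at RT with CSK and fluorescent peptide substrate, then the reaction was started with ATP (4 μM solution) and run 90 min at 25 °C before EDTA stop. Phospho-peptide conversion was read by mobility-shift separation (Caliper EZ Reader II) and converted to % inhibition for IC50.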

Chain of LCK protein (P06239 whole entry): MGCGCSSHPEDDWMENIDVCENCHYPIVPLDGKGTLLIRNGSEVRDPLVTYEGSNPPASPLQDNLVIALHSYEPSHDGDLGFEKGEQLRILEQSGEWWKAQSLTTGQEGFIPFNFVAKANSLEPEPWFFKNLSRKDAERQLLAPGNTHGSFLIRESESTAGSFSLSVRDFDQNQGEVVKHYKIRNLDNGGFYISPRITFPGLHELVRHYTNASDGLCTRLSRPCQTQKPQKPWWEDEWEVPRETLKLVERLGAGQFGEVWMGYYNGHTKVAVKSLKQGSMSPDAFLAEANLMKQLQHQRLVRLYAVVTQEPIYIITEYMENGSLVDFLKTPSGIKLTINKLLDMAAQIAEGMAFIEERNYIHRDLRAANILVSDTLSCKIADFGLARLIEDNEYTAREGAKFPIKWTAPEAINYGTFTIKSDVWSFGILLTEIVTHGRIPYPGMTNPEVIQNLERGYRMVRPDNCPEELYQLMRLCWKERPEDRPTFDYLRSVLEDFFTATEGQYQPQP

| SMILES | pIC50 (LCK protein) | pIC50 (CSK protein) |
| --- | --- | --- |
| CC(C)c1nc(-c2cccc(NS(=O)(=O)c3c(F)cccc3F)c2F)c(-c2ccnc(Nc3ccccc3)n2)s1 [Compound 120] | > 7.00 | 7.69 |
| Cc1ncc(-c2nc(-c3cccc(NS(=O)(=O)c4c(Cl)ccc(C)c4Cl)c3F)c(-c3ccnc(NC4CC4)n3)s2)cn1 [Compound 151] | < 6.00 | 8.32 |
| Nc1nccc(-c2sc(-c3ccccc3)nc2-c2cccc(NS(=O)(=O)c3ccccc3)c2F)n1 [Compound 24] | < 6.00 | 6.30 |
| O=S(=O)(Nc1cccc(-c2nc(-c3cncc(F)c3)sc2-c2ccnc(NC3CC3)n2)c1F)c1c(Cl)cccc1Cl [Compound 80] | < 6.00 | 8.22 |
| Cc1ccc(-c2nc(-c3cccc(NS(=O)(=O)c4c(F)cccc4F)c3F)c(-c3ccnc(N)n3)s2)nc1 [Compound 43] | 6.00 to 7.00 | 7.42 |
| Cc1ccc(Cl)c(S(=O)(=O)Nc2cccc(-c3nc(-c4ccc(F)cn4)sc3-c3ccnc(NC4CC4)n3)c2F)c1Cl [Compound 137] | < 6.00 | 7.67 |
| CNc1nccc(-c2sc(-c3cnc(C)nc3)nc2-c2cccc(NS(=O)(=O)c3c(Cl)ccc(C)c3Cl)c2F)n1 [Compound 143] | < 6.00 | 8.44 |
| CNc1nccc(-c2sc(-c3cncc(F)c3)nc2-c2cccc(NS(=O)(=O)c3c(F)cccc3F)c2F)n1 [Compound 74] | < 6.00 | 8.06 |
| CNc1nccc(-c2sc(N3CCCCC3)nc2-c2cccc(NS(=O)(=O)c3c(Cl)ccc(C)c3Cl)c2F)n1 [Compound 177] | < 6.00 | 7.85 |
| Cc1ccc(F)c(S(=O)(=O)Nc2cccc(-c3nc(N(C)C)sc3-c3ccnc(NC4CC4)n3)c2F)c1F [Compound 183] | < 6.00 | 7.95 |
| COc1ccc(Nc2nccc(-c3sc(-c4ccc(F)cn4)nc3-c3cccc(NS(=O)(=O)c4c(F)cccc4F)c3F)n2)cn1 [Compound 32] | 6.00 to 7.00 | 8.54 |
| CNc1nccc(-c2c(-c3cccc(NS(=O)(=O)c4c(F)ccc(C)c4F)c3F)nc3c(F)cccn23)n1 [Compound 102] | < 6.00 | 7.02 |
| CNc1nccc(-c2sc(-c3cnc(C)nc3)nc2-c2cccc(NS(=O)(=O)c3c(F)ccc(C)c3F)c2F)n1 [Compound 69] | < 6.00 | 7.87 |
| CNc1nccc(-c2sc(N(C)C)nc2-c2cccc(NS(=O)(=O)c3c(Cl)ccc(C)c3Cl)c2F)n1 [Compound 182] | < 6.00 | 8.08 |
| CN1CCN(c2ccc(Nc3nccc(-c4sc(C(C)(C)C)nc4-c4cccc(NS(=O)(=O)c5c(F)cccc5F)c4F)n3)cn2)CC1 [Compound 119] | > 7.00 | 8.43 |
